Reference: patent publication US12383571B2, “Method for enhancing tyrosinase inhibitory activity” (Jiangnan University, priority 2019, dated 2025)

test system: tyrosinase; experiment: Determination of tyrosinase activity by spectrophotometry (L-dopa substrate, 475 nm); assay type: biochemical; settings: single phenolic acid at 5 mM, other conditions as Example 1 (1.0 mg/mL protodioscin, 150° C. 30 min)
Method: A determining method of tyrosinase activity: spectrophotometry is employed, 2.8 ml of 2.5 mM L-dopa solution is taken as a substrate, 100 μL of treated inhibitor solution is taken, then 100 μL of 0.2 mg/mL tyrosinase solution is added for incubation at 30° C. for 15 min, and then a change in its light absorption value is measured at 475 nm, and taking tyrosinase activity without an inhibitor as 100%, a calculation formula is as follows: tyrosinase relative activity/%=(B2−B1)/(A2−A1)×100,
Where A1 and A2 represent light absorption values of a blank group at 0 min and 15 min, and B1 and B2 represent light absorption values of a sample at 0 min and 15 min. • 2.

Row | SMILES | tyrosinase relative activity (%)
1 | O=C(O)c1cc(O)c(O)c(O)c1 [gallic acid] | 97.25
2 | O=c1c(O)c(-c2ccc(O)c(O)c2)oc2cc(O)cc(O)c12 [quercetin] | 80.69
3 | O=C(O)C=Cc1ccccc1 [cinnamic acid] | 102.32
4 | COc1cc(-c2oc3cc(O)cc(O)c3c(=O)c2O)ccc1O [isorhamnetin] | 82.52
5 | COc1cc(/C=C/C(=O)O)ccc1O [ferulic acid] | 107.56
